Source: the NIST ThermoML archive (doi:10.1016/j.fluid.2014.03.003)

Settings: Liquid, Closed cell (Static) method

Cc1cccc(C)c1 [1,3-dimethylbenzene]
Settings	vapor or sublimation pressure [kPa]
308.15 K	2.631
313.15 K	3.524
318.15 K	4.372
323.15 K	5.37
328.15 K	6.496
333.15 K	7.75
338.15 K	9.305
343.15 K	11.12
353.15 K	15.97
363.15 K	22.76
373.15 K	32.06
383.15 K	44.23
403.15 K	80.2

Cc1ccc(C)cc1 [1,4-dimethylbenzene]
Settings	vapor or sublimation pressure [kPa]
303.15 K	1.562
313.15 K	2.49
323.15 K	4.422
333.15 K	6.997
343.15 K	10.63
353.15 K	15.72
358.15 K	19.04
363.15 K	22.8
373.15 K	32.04
383.15 K	44.56
393.15 K	60.79
403.15 K	80.87
408.15 K	92.43

Cc1ccccc1 [toluene]
Settings	vapor or sublimation pressure [kPa]
303.15 K	4.905
308.15 K	6.257
313.15 K	7.963
318.15 K	9.959
323.15 K	12.31
328.15 K	15.14
333.15 K	18.86
338.15 K	22.61
343.15 K	27.31
348.15 K	32.72
358.15 K	46.17
368.15 K	63.84
378.15 K	86.25

c1ccccc1 [benzene]
Settings	vapor or sublimation pressure [kPa]
293.15 K	9.983
298.15 K	12.64
303.15 K	15.85
308.15 K	19.71
313.15 K	24.3
318.15 K	29.73
323.15 K	36.09
328.15 K	43.51
333.15 K	52.11
338.15 K	62.01
343.15 K	73.35
348.15 K	86.27
353.15 K	100.91

CCc1ccccc1 [ethylbenzene]
Settings	vapor or sublimation pressure [kPa]
308.15 K	2.223
318.15 K	3.746
323.15 K	4.712
328.15 K	5.967
333.15 K	7.448
338.15 K	9.251
343.15 K	11.41
348.15 K	13.79
358.15 K	20.42
368.15 K	29.11
383.15 K	47.75
403.15 K	85.64

Cc1ccccc1C [1,2-dimethylbenzene]
Settings	vapor or sublimation pressure [kPa]
313.15 K	2.052
323.15 K	3.456
333.15 K	5.613
343.15 K	8.542
353.15 K	12.73
363.15 K	18.65
373.15 K	26.73
378.15 K	31.66
383.15 K	37.35
388.15 K	43.63
393.15 K	51.01
403.15 K	68.42
413.15 K	90.18
